Laboratory results reported in patent US20260209195A1, “METHOD FOR PRODUCING 2-AMINO-5-SUBSTITUTED-1,3,4-OXADIAZOLE” (MITSUBISHI GAS CHEMICAL NEXT COMPANY, INC., priority 2022, published 2026).

Test: solubility of 2-amino-5-methyl-1,3,4-oxadiazole in water and aqueous NaCl solution (salting-out effect)
Type: physicochemical

solubility in a 10 mass % aqueous NaCl solution (10 mass % aqueous NaCl solution (30° C. as in the same sentence)): 7.9 % by mass | solubility in a 26.4 mass % aqueous NaCl solution (30° C.): 3.5 % by mass | solubility in a 26.4 mass % aqueous NaCl solution (−5° C.): 1.1 % by mass | solubility in water (water, 30° C.): 13.9 % by mass
Structure (SMILES): Cc1nnc(N)o1 [2-amino-5-methyl-1,3,4-oxadiazole]
